From patent US11000033B2, “Ketone or oxime compound, and herbicide” (NISSAN CHEMICAL CORPORATION, priority 2014, dated 2021)

Legend:
Assay type in all cases: in vivo
[1] = test system: Echinochloa crus-galli var. crus-galli; experiment: Test Example 3: herbicidal effect by foliage application, Wagner pot (symbol H); conditions: application herbicide amount 320 g/ha
Procedure, shortened: (§1)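 Rating at 3 weeks post-spray, by defined criteria. Treatment: emulsion diluted with water to a predetermined amount, applied evenly to foliage of 14-day-old plants raised in alluvial soil flooded 0.1–0.5 cm deep at 25–30 °C, rice co-sown.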

Abutilon theophrasti = experiment: Test Example 5: herbicidal effect by foliage application, plastic box (symbol M); conditions: 320 g/ha, 3 weeks after application
Procedure, shortened: (§2)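 Leaf-applied emulsion, water-diluted to a preset herbicide dose, on two-week-old seedlings raised in a 25° C. to 30° C. greenhouse; injury rated at 3 weeks using earlier criteria.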

Cyperus difformis = experiment: Test Example 3: herbicidal effect by foliage application, Wagner pot (symbol E); conditions: application herbicide amount 320 g/ha
Procedure, shortened: as §1

Galium spurium = experiment: Test Example 5: herbicidal effect by foliage application, plastic box (symbol Q); conditions: 320 g/ha, 3 weeks after application
Procedure, shortened: as §2

corn = experiment: Test Example 4: effect on crop by soil treatment (symbol c); conditions: application herbicide amount 320 g/ha
Procedure, shortened: (§3)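 Diluvial soil (sterilized) in boxes; seeds placed spot-wise alongside weed species; ~1.5 cm covering soil. Greenhouse, 25–30° C.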

[2] = test system: directly sowed rice plant; experiment: Test Example 3: effect on crop by foliage application, Wagner pot (symbol b); conditions: application herbicide amount 320 g/ha
Procedure, shortened: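 Plants are raised from seed in flooded paddy conditions: water stands 0.1–0.5 cm over alluvial soil, and the pot is kept in a greenhouse at 25–30 °C. Species sown are barnyardgrass (E. crus-galli var. crus-galli), Leptochloa chinensis, Cyperus difformis and rice.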

Alopecurus myosuroides [3] = experiment: Test Example 5: herbicidal effect by foliage application, plastic box (symbol J); conditions: 320 g/ha, 3 weeks after application
Procedure, shortened: as §2

Leptochloa chinensis = experiment: Test Example 3: herbicidal effect by foliage application, Wagner pot (symbol D); conditions: application herbicide amount 320 g/ha
Procedure, shortened: as §1

Scirpus juncoides = experiment: Test Example 1: herbicidal activity, application before weed generation in submerged conditions (symbol B); conditions: application herbicide amount 320 g/ha
Procedure, shortened: (§4)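 Greenhouse growth at 25–30 °C lasted 3 weeks after treatment, when each weed was graded 0–5 by herbicidal ratio. Treatment was a diluted emulsion applied to the water surface of 4 cm-submerged alluvial soil on the sowing day.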

[4] = test system: Echinochloa oryzacola Vasing.; experiment: Test Example 1: herbicidal activity, application before weed generation in submerged conditions (symbol A); conditions: application herbicide amount 320 g/ha
Procedure, shortened: as §4

rapeseed = experiment: Test Example 4: effect on crop by soil treatment (symbol g); conditions: application herbicide amount 320 g/ha
Procedure, shortened: as §3

Digitaria ciliaris = experiment: Test Example 4: herbicidal effect by soil treatment (symbol F); conditions: application herbicide amount 320 g/ha
Procedure, shortened: (§5)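 Seeds were sown in sterilized diluvial soil, covered with about 1.5 cm of soil, and the soil surface was sprayed with a water-diluted emulsion of the compound at a predetermined rate. Plants grew in a greenhouse at 25° C. to 30° C.; effects were scored visually 3 weeks after application.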

Apera spica-venti = experiment: Test Example 5: herbicidal effect by foliage application, plastic box (symbol L); conditions: 320 g/ha, 3 weeks after application
Procedure, shortened: as §2

Alopecurus myosuroides [5] = experiment: Test Example 4: herbicidal effect by soil treatment (symbol J); conditions: application herbicide amount 320 g/ha
Procedure, shortened: as §5

wheat = experiment: Test Example 5: effect on crop by foliage application, plastic box (symbol e); conditions: 320 g/ha, 3 weeks after application
Procedure, shortened: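 Diluvial soil, sterilized and boxed (21 × 13 × 7 cm), received spot-sown seed covered by about 1.5 cm soil; plants were then greenhouse-grown at 25–30° C.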

Stellaria media = experiment: Test Example 5: herbicidal effect by foliage application, plastic box (symbol P); conditions: 320 g/ha, 3 weeks after application
Procedure, shortened: as §2

Row | Compound | herbicidal effect on H (Echinochloa crus-galli var. crus-galli), grade 0-5 [1] | M: Abutilon theophrasti, herbicidal effect grade (Abutilon theophrasti) | herbicidal effect on E, grade 0-5 (Cyperus difformis) | Q: Galium spurium, herbicidal effect grade (Galium spurium) | c (corn) effect on crop grade (corn) | effect on crop b (directly sowed rice plant), grade 0-5 [2] | J: Alopecurus myosuroides, herbicidal effect grade (Alopecurus myosuroides [3]) | herbicidal effect on D (Leptochloa chinensis), grade 0-5 (Leptochloa chinensis) | Herbicidal effect grade, B: Scirpus juncoides (Scirpus juncoides) | Herbicidal effect grade, A: Echinochloa oryzacola Vasing. [4] | g (rapeseed) effect on crop grade (rapeseed) | F (Digitaria ciliaris) herbicidal effect grade (Digitaria ciliaris) | L: Apera spica-venti, herbicidal effect grade (Apera spica-venti) | J (Alopecurus myosuroides) herbicidal effect grade (Alopecurus myosuroides [5]) | e: wheat, effect on crop grade (wheat) | P: Stellaria media, herbicidal effect grade (Stellaria media)
1 | CC(CC1CC(O)=C(c2c(C)cc(C)cc2C)C1=O)=NOCC1CC1 (centres unmarked) [1-024] | 5 (Herbicidal ratio of 90% or more (almost completely withered)) | 1 (Herbicidal ratio of 5% or higher and lower than 20%) | 5 (Herbicidal ratio of 90% or more (almost completely withered)) | 3 (Herbicidal ratio of 40% or higher and lower than 70%) | 1 (Herbicidal ratio of 5% or higher and lower than 20%) | 5 (Herbicidal ratio of 90% or more (almost completely withered)) | 5 (Herbicidal ratio of 90% or more (almost completely withered)) | 5 (Herbicidal ratio of 90% or more (almost completely withered)) | 5 (Herbicidal ratio of 90% or more (almost completely withered)) | 5 (Herbicidal ratio of 90% or more (almost completely withered)) | 3 (Herbicidal ratio of 40% or higher and lower than 70%) | 5 (Herbicidal ratio of 90% or more (almost completely withered)) | 5 (Herbicidal ratio of 90% or more (almost completely withered)) | 5 (Herbicidal ratio of 90% or more (almost completely withered)) | 5 (Herbicidal ratio of 90% or more (almost completely withered)) | 3 (Herbicidal ratio of 40% or higher and lower than 70%)
2 | CC(CC1CC(O)=C(c2c(C)cc(C)cc2C)C1=O)=NOCC(=O)N1CCOCC1 (centres unmarked) [1-025] | 5 (Herbicidal ratio of 90% or more (almost completely withered)) | 1 (Herbicidal ratio of 5% or higher and lower than 20%) | 5 (Herbicidal ratio of 90% or more (almost completely withered)) | 4 (Herbicidal ratio of 70% or higher and lower than 90%) | 0 (Herbicidal ratio of 5% or lower (almost no effect)) | 5 (Herbicidal ratio of 90% or more (almost completely withered)) | 5 (Herbicidal ratio of 90% or more (almost completely withered)) | 5 (Herbicidal ratio of 90% or more (almost completely withered)) | 2 (Herbicidal ratio of 20% or higher and lower than 40%) | 4 (Herbicidal ratio of 70% or higher and lower than 90%) | 4 (Herbicidal ratio of 70% or higher and lower than 90%) | 5 (Herbicidal ratio of 90% or more (almost completely withered)) | 5 (Herbicidal ratio of 90% or more (almost completely withered)) | 4 (Herbicidal ratio of 70% or higher and lower than 90%) | 4 (Herbicidal ratio of 70% or higher and lower than 90%) | 4 (Herbicidal ratio of 70% or higher and lower than 90%)
